≈ marks a conversion by molar mass, not a printed value. Numbered stars: 1 amine (or outer) side, 2 acyl side, 3 side chain; on linkers, the order of the positions; unused ones are H or OH. Bridge positions count the residues as written; N and C are the ends. Square brackets hold non-standard residues; d marks the D form. Peptide text beside a SMILES is read from it. * marks the point of attachment. Piperazine(2S-CO,4-Me) = CN1CCN[C@H](C(=O)O)C1; Phe(3-Me) = Cc1cccc(C[C@H](N)C(=O)O)c1; NH(4-Cl-2-F-phenyl) = Fc1cc(Cl)ccc1N*; Pro(4R-Me) = C[C@H]1CN[C@H](C(=O)O)C1; Hyp = O=C(O)[C@@H]1C[C@@H](O)CN1; aThr = C[C@H](O)[C@H](N)C(=O)O; Pip = O=C(O)[C@@H]1CCCCN1; CO = O=C([*:1])[*:2]; X2 = Fc1cc(N*)ccc1Cl
What was measured:
[1] = Microsomal metabolic stability; assay type: in vitro ADME, mouse; details: CD-1, mouse, pH 7.4
Description: Compounds were initially prepared by dissolving them into DMSO at a final concentration of 10 mM. NADPH regenerating solutions A and B and mouse liver microsomes (CD-1) were obtained from BD Gentest (Woburn, Mass.). Ninety-six well deep well plates were obtained from MidWest Scientific Inc (Valley Park, Mo.).
Sample preparation for microsomal stability was modified from methods of Di, L., et al., Int J Pharm. 2005 Jun. 13; 297(1-2):110-9. A set of incubation times of 0, 15, 30, 60, 120, and 240 minutes were used. Mouse liver microsomal solutions were prepared by adding 58 μL of concentrated human or mouse liver microsomes (20 mg/mL protein concentration) to 1.756 mL of 0.1 M potassium phosphate buffer (pH 7.4) and 5 μL of 0.5 M EDTA to make a 0.6381 mg/mL (protein) microsomal solution. NADPH regenerating agent contained 113 μL of NADPH A, 23 μL of NADPH B, and 315 μL of 0.1 M potassium phosphate buffer (pH 7.4). The diluted test compound solutions (2 μL) were each added directly to a 1.79 mL of liver microsomal solution. This solution was mixed and 90 μL was transferred to 6 time points plates (each in triplicate wells). For the time 0 plate, 225 μL of cold acetonitrile with internal standard ([…] warfarin) was added to each well, followed by addition of NADPH regenerating agent (22.5 μL) and no incubation. For other five time points' plate, NADPH regenerating agent (22.5 μL) was added to each well to initiate the reaction. The plates were incubated at 37° C. for the required time, followed by quenching of the reaction by adding 225 μL of cold acetonitrile with internal standard (4 μg/ml warfarin). All of the plates were sealed and mixed well at 600 rpm for 10 minutes followed by centrifugation at 4000 rpm for 20 minutes. The supernatants (120 μL) were transferred to analytical plates for analysis by LCMS. LCMS conditions were described in the materials and instrumentation section above. The metabolic stability is evaluated via the half-life from least-squares fit of the multiple time points based on first-order kinetics.

[2] = target: T1, Sa-ClpP (Staphylococcus aureus, UniProt Q2G036); assay: ADEP displacement fluorescence polarization assay; assay type: binding, S. aureus; details: displacement of FP probe ADEP 2591 from Sa-ClpP
T1 construct: made in house; host or cells: E. coli BL21 (DE3)
T1 sequence (Q2G036 whole entry): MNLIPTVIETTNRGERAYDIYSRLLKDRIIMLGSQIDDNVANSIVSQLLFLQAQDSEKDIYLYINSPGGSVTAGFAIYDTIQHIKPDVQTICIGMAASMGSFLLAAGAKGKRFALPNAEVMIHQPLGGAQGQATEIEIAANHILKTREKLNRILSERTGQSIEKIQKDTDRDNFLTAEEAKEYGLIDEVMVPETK
Description: A fluorescence polarization (FP) assay was used to determine the activity of the disclosed compounds in displacing an ADEP analogue from ClpP. Briefly, the assay was performed in black 384 well, flat bottom, low volume plates (Greiner Bio-One, Monroe, N.C., catalog #784076). 20 μL of a pre-equilibrated (1 hr, room temperature) master mix (15 μM Sa-ClpP, 2% DMSO (v/v) and 50 nM FP probe in TrisHCl, pH 8.0)) was pipetted into each well using a Well-Mate (Thermo Scientific, Waltham, Mass.). Sa-ClpP was prepared as described above for the ClpP activation assay. The FP probe was ADEP 2591 (structure shown above). The ADEP 2591 comprises a TAMRA fluorophore linked to a core based on modified ADEP 2378 via a short alkyl linker. Using pin transfer, approximately 0.4 μL (2% v/v DMSO) of each compound or control was added per well. After addition of compounds and controls, plates were allowed to incubate for an additional 120 minutes at room temperature. All assays were performed in triplicate. Polarization was monitored using an EnVision Multilabel reader (Perkin-Elmer, Waltham, Mass.) by exciting the FP probe at 530±25 nm, and monitoring fluorescence intensity of both parallel and perpendicular polarized light at 579±25 nm. Readout was in millipolarization units (mP).
Signal gain and G factors were determined in wells containing 200 μM ADEP 2378, which had been previously verified (data not shown) as containing completely unbound ADEP 2591. Data collected was normalized to values obtained from positive (200 μM ADEP 2378) or negative (DMSO) controls. Curves were fit with non-linear regression using the equation “log [inhibitor] vs. Response-variable slope (four parameters)-symmetrical” in the program Prism 6 (GraphPad Software, La Jolla, Calif. USA, www.graphpad.com). The structures for ADEP 2378 and ADEP 2591 are shown above. ADEP 2378 is (E)-N—((S)-1-(((2R,6S,8aS,14aS,20S,23aS)-2,6-dimethyl-5,8,14,19,23-pentaoxooctadecahydro-1H,5H,14H,19H-pyrido[2,1-i]dipyrrolo[2,1-c:2′,1′-1][1]oxa[4,7,10,13]tetraazacyclohexadecin-20-yl)amino)-1-oxo-3-phenylpropan-2-yl)pent-2-enamide. ADEP 2591 is 5-(3-(3-((6S,9S,11aS,17S,20aS)-6,10-dimethyl-5,8,11,16,20-pentaoxo-17-((S)-2-((E)-pent-2-enamido)-3-phenylpropanamido)hexadecahydro-1H,5H,16H-dipyrrolo[2,1-c:2′,1′-1][1]oxa[4,7,10,13]tetraazacyclohexadecin-9-yl)propyl)thioureido)-2-(6-(dimethylamino)-3-(dimethyliminio)-3H-xanthen-9-yl)benzoate.

[3] = test system: S. aureus USA 300; assay: Minimal inhibitory concentration, microbroth dilution; assay type: cell-based; details: Staphylococcus aureus, USA300; MIC; read-out: Minimal Inhibitory Concentrations (μM) S. aureus USA 300
Summary of the method: (§1)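 Susceptibility testing used the CLSI dilution standard, with bacteria at ~10^5 cfu/mL exposed to a two-fold compound series beginning at 200 μM final. The endpoint is the lowest concentration showing no growth after overnight incubation (37 °C, aerobic).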

[4] = test system: E. faecails; assay: as above; assay type: cell-based; details: Enterococcus faecalis; MIC; read-out: Minimal Inhibitory Concentrations (μM) E. faecails
Summary of the method: as §1

[5] = test system: MRSA NRS70; assay: as above; assay type: cell-based; details: Staphylococcus aureus; MIC; read-out: Minimal Inhibitory Concentrations (μM) MRSA NRS70
Summary of the method: as §1

[6] = test system: S. aureus ATCC 29213; assay: as above; assay type: cell-based; details: Staphylococcus aureus, ATCC29213; MIC; read-out: Minimal Inhibitory Concentrations (μM) S. aureus ATCC 29213
Summary of the method: as §1

Cc1cccc(C[C@H](NC(=O)Nc2ccc(Cl)cc2F)C(=O)N[C@@H]2C(=O)N3C[C@H](O)C[C@H]3C(=O)N3CCCC[C@H]3C(=O)N[C@@H](C)C(=O)N3C[C@H](C)C[C@H]3C(=O)O[C@H]2C)c1 [Compound 6, (S)-2-(3-(4-CHLORO-2-FLUOROPHENYL)UREIDO)-N-((2R,6S,8AS,14AS,16R,20S,21S,23AS)-16-HYDROXY-2,6,21-TRIMETHYL-5,8,14,19,23-PENTAOXOOCTADECAHYDRO-1H,5H,14H,19H-PYRIDO[2,1-I]DIPYRROLO[2,1-C:2′,1′-L][1]OXA[4,7,10,13]TETRAAZACYCLOHEXADECIN-20-YL)-3-(M-TOLYL)PROPANAMIDE] ({NH(4-Cl-2-F-phenyl)-CO}-[Phe(3-Me)][aThr][Hyp][Pip]A[Pro(4R-Me)]; ester 2-C)
Mouse [1]: 4.61 ± 1.2 h | IC50 [2]: 3 ± 0.2 µM | MIC [3]: 0.156 µM (≈ 0.131 µg/mL) | MIC [4]: 0.078 µM (≈ 0.0655 µg/mL) | MIC [5]: 0.078 µM (≈ 0.0655 µg/mL) | MIC [6]: 0.078 µM (≈ 0.0655 µg/mL)

Cc1cccc(C[C@H](NC(=O)Nc2ccc(Cl)cc2F)C(=O)N[C@H]2COC(=O)[C@@H]3C[C@@H](C)CN3C(=O)[C@H](C)NC(=O)[C@@H]3CCCCN3C(=O)[C@@H]3CCCN3C2=O)c1 [Compound 8, (S)-2-(3-(4-CHLORO-2-FLUOROPHENYL)UREIDO)-N-((2R,6S,8AS,14AS,20S,23AS)-2,6-DIMETHYL-5,8,14,19,23-PENTAOXOOCTADECAHYDRO-1H,5H,14H,19H-PYRIDO[2,1-I]DIPYRROLO[2,1-C:2′,1′-L][1]OXA[4,7,10,13]TETRAAZACYCLOHEXADECIN-20-YL)-3-(M-TOLYL)PROPANAMIDE]
Mouse [1]: 1.22 ± 0.13 h | IC50 [2]: 3.51 ± 0.1 µM | MIC [3]: 0.313 µM (≈ 0.254 µg/mL) | MIC [4]: 0.156 µM (≈ 0.126 µg/mL) | MIC [5]: 0.156 µM (≈ 0.126 µg/mL) | MIC [6]: 0.625 µM (≈ 0.506 µg/mL)

Cc1cccc(C[C@H](NC(=O)Nc2ccc(Cl)cc2F)C(=O)N[C@H]2COC(=O)[C@@H]3C[C@@H](C)CN3C(=O)[C@H](C)NC(=O)[C@@H]3CCCCN3C(=O)[C@@H]3C[C@@H](O)CN3C2=O)c1 [Compound 10]
Mouse [1]: 0.7 ± 0.07 h | IC50 [2]: 4.65 ± 0.2 µM | MIC [3]: 0.313 µM (≈ 0.259 µg/mL) | MIC [4]: 0.313 µM (≈ 0.259 µg/mL) | MIC [5]: 0.313 µM (≈ 0.259 µg/mL) | MIC [6]: 0.313 µM (≈ 0.259 µg/mL)

Cc1cccc(C[C@H](NC(=O)Nc2ccc(Cl)cc2F)C(=O)N[C@@H]2C(=O)N3CCC[C@H]3C(=O)N3CCN(C)C[C@H]3C(=O)N[C@@H](C)C(=O)N3C[C@H](C)C[C@H]3C(=O)O[C@H]2C)c1 [Compound 11, (S)-2-(3-(4-CHLORO-2-FLUOROPHENYL)UREIDO)-N-((6AS,12S,13S,15AS,17R,21S,23AS)-2,13,17,21-TETRAMETHYL-6,11,15,20,23-PENTAOXOOCTADECAHYDRO-2H,6H,11H,15H-PYRAZINO[2,1-I]DIPYRROLO[2,1-C:2′,1′-L][1]OXA[4,7,10,13]TETRAAZACYCLOHEXADECIN-12-YL)-3-(M-TOLYL)PROPANAMIDE] ({NH(4-Cl-2-F-phenyl)-CO}-[Phe(3-Me)][aThr]P[Piperazine(2S-CO,4-Me)]A[Pro(4R-Me)]; ester 2-C)
Mouse [1]: 0.67 ± 0.07 h | IC50 [2]: 3.45 ± 0.2 µM | MIC [3]: 0.078 µM (≈ 0.0655 µg/mL) | MIC [4]: 0.078 µM (≈ 0.0655 µg/mL) | MIC [5]: 0.078 µM (≈ 0.0655 µg/mL) | MIC [6]: 0.078 µM (≈ 0.0655 µg/mL)

Cc1cccc(C[C@H](NC(=O)Nc2ccc(Cl)cc2F)C(=O)N[C@H]2COC(=O)[C@@H]3C[C@@H](C)CN3C(=O)[C@H](C)NC(=O)[C@@H]3CCCCN3C(=O)[C@@H]3C[C@H](N)CN3C2=O)c1 [Compound 12, (S)—N-((2R,6S,8AS,14AS,16S,20S,23AS)-16-AMINO-2,6-DIMETHYL-5,8,14,19,23-PENTAOXOOCTADECAHYDRO-1H,5H,14H,19H-PYRIDO[2,1-I]DIPYRROLO[2,1-C:2′,1′-L][1]OXA[4,7,10,13]TETRAAZACYCLOHEXADECIN-20-YL)-2-(3-(4-CHLORO-2-FLUOROPHENYL)UREIDO)-3-(M-TOLYL)PROPANAMIDE]
Mouse [1]: 2.34 ± 0.44 h | IC50 [2]: 6.03 ± 0.3 µM | MIC [3]: 0.625 µM (≈ 0.516 µg/mL) | MIC [4]: 1.25 µM (≈ 1.03 µg/mL) | MIC [5]: 1.25 µM (≈ 1.03 µg/mL) | MIC [6]: 1.25 µM (≈ 1.03 µg/mL)

Cc1cccc(C[C@H](NC(=O)Nc2ccc(Cl)cc2F)C(=O)N[C@H]2COC(=O)[C@@H]3C[C@@H](C)CN3C(=O)[C@H](C)NC(=O)[C@@H]3CN(C)CCN3C(=O)[C@@H]3CCCN3C2=O)c1 [Compound 13, (S)-2-(3-(4-CHLORO-2-FLUOROPHENYL)UREIDO)-3-(M-TOLYL)-N-((6AS,12S,15AS,17R,21S,23AS)-2,17,21-TRIMETHYL-6,11,15,20,23-PENTAOXOOCTADECAHYDRO-2H,6H,11H,15H-PYRAZINO[2,1-I]DIPYRROLO[2,1-C:2′,1′-L][1]OXA[4,7,10,13]TETRAAZACYCLOHEXADECIN-12-YL)PROPANAMIDE] ({NH(4-Cl-2-F-phenyl)-CO}-[Phe(3-Me)]SP[Piperazine(2S-CO,4-Me)]A[Pro(4R-Me)]; ester 2-C)
Mouse [1]: 0.49 ± 0.03 h | IC50 [2]: 16.4 ± 0.8 µM | MIC [3]: 2.5 µM (≈ 2.06 µg/mL) | MIC [4]: 0.625 µM (≈ 0.516 µg/mL) | MIC [5]: 1.25 µM (≈ 1.03 µg/mL) | MIC [6]: 1.25 µM (≈ 1.03 µg/mL)

Cc1cccc(C[C@H](NC(=O)Nc2ccc(Cl)c(F)c2)C(=O)N[C@H]2COC(=O)[C@@H]3C[C@@H](C)CN3C(=O)[C@H](C)NC(=O)[C@@H]3CN(C)CCN3C(=O)[C@@H]3CCCN3C2=O)c1 [Compound 14, (S)-2-(3-(4-CHLORO-3-FLUOROPHENYL)UREIDO)-3-(M-TOLYL)-N-((6AS,12S,15AS,17R,21S,23AS)-2,17,21-TRIMETHYL-6,11,15,20,23-PENTAOXOOCTADECAHYDRO-2H,6H,11H,15H-PYRAZINO[2,1-I]DIPYRROLO[2,1-C:2′,1′-L][1]OXA[4,7,10,13]TETRAAZACYCLOHEXADECIN-12-YL)PROPANAMIDE] ({X2-CO}-[Phe(3-Me)]SP[Piperazine(2S-CO,4-Me)]A[Pro(4R-Me)]; ester 2-C)
Mouse [1]: 3.15 ± 0.26 h | IC50 [2]: 5.19 ± 0.2 µM | MIC [3]: 5 µM (≈ 4.13 µg/mL) | MIC [4]: 1.25 µM (≈ 1.03 µg/mL) | MIC [5]: 2.5 µM (≈ 2.06 µg/mL) | MIC [6]: 5 µM (≈ 4.13 µg/mL)
